Results on six compounds are retold here after patent US20150202308A1, “BUDESONIDE FORMULATION” (Nephron Pharmaceuticals Corporation, priority 2014, published 2015).

Holding throughout (assay type): physicochemical
Data set [1] is described as follows: Alternative beta-cyclodextrins for complexation with budesonide (% assay). Particulars: for % Assay: budesonide inhalation solution 0.188 mg/mL. How it is done:
(§1) Preparation of Lab Batches: Tared a clean/dry beaker+stir bar. Weighed and transferred Budesonide and cyclodextrin into the beaker and mixed dry to achieve uniform dispersion. Dissolved with a portion of stock buffer solution to create a saturated ionic phase and mixed for 5-20 minutes. Slowly diluted with the buffer solution and mixed for an additional 5-10 minutes. The pH of the solution was then adjusted with 1M citric acid or 1M NaOH and diluted to the final volume with purified water. While mixing, the solution was sparged with nitrogen for 30 minutes.
Alternative Beta-Cyclodextrins for Complexation: Laboratory batches of budesonide inhalation solution 0.188 mg/mL were prepared in buffer and water according to the procedure described above using 2-hydroxyethyl-B-cyclodextrin and Heptakis 2,6-Di-O-Methyl-B-cyclodextrin.

Data set [2] can be described thus: Preliminary proof of concept studies of the new complexation process.
Data set [3] can be described thus: Minimum concentration of 2-hydroxypropyl-B-cyclodextrin for complexation (assay). Here is the method:
Studies were conducted to determine the minimum concentration of 2-Hy-B-cyclodextrin required to achieve 100% budesonide complexation. […] To evaluate if a lower concentration may be used a study was conducted to evaluate if 100% complexation was possible at between 0.5% and 3.0% cyclodextrin. • Complexation efficiency in buffer vs. water: Traditional methods of complexation are usually carried out in water. We conducted studies to evaluate the efficiency of Budesonide-cyclodextrin complexation using a complexation solution of high ionic strength and using purified water. • Alternative Salts or Complexation: The ionic strength of the Buffer solution was calculated to be approximately 508 mol/m^−3. Two alternative salts, Sodium Chloride and Potassium Chloride, and a Phosphate buffer were prepared at the same ionic strength. Laboratory batches of budesonide inhalation solution were prepared using each alternative ionic adjuster to evaluate the effects of various salts on the formulation process. • Alternative Beta-Cyclodextrins for Complexation: […] additional Beta Cyclodextrins, 2-hydroxyethyl-B-cyclodextrin and Heptakis 2,6-Di-O-Methyl-B-cyclodextrin, were evaluated as potential alternatives for complexation with Budesonide.
as §1
Laboratory batches of budesonide inhalation Solution 0.188 mg/mL were prepared to determine the minimum concentration of 2-Hydroxypropyl-B-cyclodextrin required for an effective formulation. Each laboratory batch was prepared as per the procedure described above.

The nature of data set [4]: Complexation rate in buffer vs. water (filtered slurry, UV-Vis). The note with it: excess Budesonide, 2 g 2-HY-B-CD in 12.5 mL concentrated buffer or water; FIG. 1. How it is done: To evaluate the initial association rate of Budesonide with 2-hydroxypropyl-beta-cyclodextrin, excess Budesonide was mixed with 2 g of 2-HY-B-CD in 12.5 mL of concentrated buffer solution or water. 1.0 mL of this slurry was filtered through a 0.2 syringe filter to remove un-complexed Budesonide and evaluated by UV-Vis at 2 minute intervals. A positive control prepared from filtered Budesonide Inhalation Suspension containing 0.25 mg/mL of Budesonide was used to ensure non-interference. […] This is consistent with the particle size distribution of the API which has a small percentage of Budesonide with <0.2 μm particle size diameter. This small amount of Budesonide was determined not to be significant enough to bias the results.

Data set [5] can be described thus: Complexation efficiency of budesonide with 2-HY-B-cyclodextrin in buffer vs. water (end point % assay). Particulars: for % Assay at T = min. (amount of Budesonide complexed): 3% 2-HY-B-Cyclodextrin; for time to reach 100% complexation: determined from the data. How it is done: as §1
An end point analysis was conducted to evaluate the efficiency of the formulation procedure. Laboratory batches of Budesonide Inhalation Solution were prepared in 3% 2-HY-B-Cyclodextrin and assayed to evaluate the efficiency of the formulation procedure. During the second study, the rate of complexation between Budesonide and 2-HY-B-Cyclodextrin was evaluated in both Buffer and Water.
Six laboratory batches of Budesonide Inhalation Solution were prepared as described above, 3 each in buffer and water. The amount of Budesonide complexed was evaluated at 5 minutes, 8 minutes and 12 minutes for each solvent and compared to the expected concentration at the 100% level.

The nature of data set [6]: Filtration study of laboratory batches (assay before and after 0.22 μm filters). Particulars: Budesonide with 2-hydroxypropyl-β-cyclodextrin, room temperature. Here is the method:
In this study 50 mL of 5 separate laboratory batches were filtered through PTFE, PVDF, and PES 0.22 μm filters. In the case that the complexation reaction was not completed, the filtration process would remove the un-complexed budesonide producing a significant difference between the assay values before and after filtration. For each of the lab batches tested, no significant difference between pre and post filter assay values was detected, indicating 100% complexation.

Data set [7] is described as follows: EDTA and gamma-cyclodextrin effects on formulation stability. The note with it: for effect on formulation stability / effect of varying the amount on stability: 90 days at 40° C.; for effect of varying the amount on stability: varied beginning at 0.05%. How it is done:
A study was designed to evaluate the effects of EDTA and γ-CD on the formulation stability. Both γ-CD and EDTA were varied beginning at 0.05% and tested at 30 day intervals for 90 days stored at 40° C.

[8] abbreviates: budesonide at 0.188 mg/mL, in buffer.

In the case of 2-Hydroxyethyl-B-cyclodextrin, the “% Assay” value came to 66.7% in data set [1] (3% cyclodextrin), 90.3% in data set [1] (6% cyclodextrin) and 96.4% in data set [1] (8% cyclodextrin). Besides, the “efficiency of complexation possible” value in data set [1] (within the proposed range of cyclodextrin (3%-8%)) is 100%.
In the case of “2-Hydroxypropyl-β-cyclodextrin [HP-β-CD]”, the “percent of HP-β-CD required” value in data set [2] is on record as under 10%.
With `COCC1OC2OC3C(COC)OC(OC4C(COC)OC(OC5C(COC)OC(OC6C(COC)OC(OC7C(COC)OC(OC8C(COC)OC(OC1C(O)C2OC)C(OC)C8O)C(OC)C7O)C(OC)C6O)C(OC)C5O)C(OC)C4O)C(OC)C3O` (stereo not drawn) [2,6-di-o-mehtyl, Heptakis 2,6-Di-O-Methyl-B-cyclodextrin], in data set [1] (setting [8]), the “efficiency of complexation with available budesonide” value is given as 100% and the “time to 100% efficiency of complexation” value was in the range of 3 to 5 min. Moreover, the “% Assay” value in data set [1] (3% cyclodextrin) is listed as 101.9%.
As to `CCCC1O[C@@H]2C[C@H]3[C@@H]4CCC5=CC(=O)C=C[C@]5(C)[C@H]4[C@@H](O)C[C@]3(C)[C@]2(C(=O)CO)O1` (stereo partly drawn) [Budesonide, 16,17-(butylidenebis(oxy))-11,21-dihydroxy-, (11-β,16-α)-pregna-1,4-diene-3,20-dione], the “minimum desirable concentration of cyclodextrin to meet the USP monograph” value in data set [3] is given as at least 3.0%. Besides, the Assay in data set [3] (0.188 mg/mL, 0.5% cyclodextrin, molar ratio 8.4) is 75.9%; in data set [3] (0.188 mg/mL, 1.0% cyclodextrin, molar ratio 16.8) it was 85.9%; in data set [3] (0.188 mg/mL, 1.5% cyclodextrin, molar ratio 25.2), 91.5%; in data set [3] (0.188 mg/mL, 2.0% cyclodextrin, molar ratio 33.6), 95.5%; in data set [3] (0.188 mg/mL, 2.5% cyclodextrin, molar ratio 41.9), 95.7%; in data set [3] (budesonide inhalation solution 0.188 mg/mL, 3.0% 2-Hydroxypropyl-B-cyclodextrin, molar ratio CD:Budesonide 50.3), 99.4%. The “complexation of Budesonide” value stood at 100% in data set [3] (3.0% 2-Hydroxypropyl-B-cyclodextrin, molar ratio 50.33) and 100% in data set [3] (4% (w/v) beta-cyclodextrin, Budesonide at 0.188 mg/mL, stable). Besides, the “ratio of epimer A (of total content)” value in data set [3] (below 3.0% Beta-cyclodextrin, USP criterion 40%-51%) is reported as “exceeded 51%”. Further, in data set [4], the “rate of complexation with 2-hydoxypropyl-B-cyclodextrin” value is reported as “much higher rate in buffer than in water”. The “% Assay at T = min. (amount of Budesonide complexed)” value is recorded as 91.1% in data set [5] (solvent Buffer, 5 minutes, vs expected concentration at 100% level); 96.3% in data set [5] (solvent Buffer, 8 minutes); 99.7% in data set [5] (solvent Buffer, 12 minutes); 71.9% in data set [5] (solvent Water, 5 minutes); 78.1% in data set [5] (solvent Water, 8 minutes); 89.7% in data set [5] (solvent Water, 12 minutes). In addition, the “increase in the initial complexation efficiency” value in data set [5] (batches in concentrated buffer solution over those prepared in water) was about 22%. In addition, the increase in efficiency in data set [5] (buffer vs. water, from times to 100% complexation) is recorded as 180%. Also, the “time to reach 100% complexation” value in data set [5] (in buffer) was “approximately 9 minutes”; in data set [5] (in water) it was about 16.2 min. Further, the “time to virtually 100% complexation efficiency” value in data set [6] is “less than 10 minutes”. In data set [6] (no organic solvents), the complexation efficiency is reported as about 100%.
As to `O=C(O)CN(CCN(CC(=O)O)CC(=O)O)CC(=O)O` [EDTA], in data set [7], the “effect on formulation stability” value was “positive effect on stability” and the “effect of varying the amount on stability” value was “no significant effects”. Moreover, the “effect on growth of impurity D” value in data set [7] (previous studies) was “helps control the growth of impurity D”.
On to `OC[C@H]1O[C@@H]2O[C@H]3[C@H](O)[C@@H](O)[C@@H](O[C@H]4[C@H](O)[C@@H](O)[C@@H](O[C@H]5[C@H](O)[C@@H](O)[C@@H](O[C@H]6[C@H](O)[C@@H](O)[C@@H](O[C@H]7[C@H](O)[C@@H](O)[C@@H](O[C@H]8[C@H](O)[C@@H](O)[C@@H](O[C@H]9[C@H](O)[C@@H](O)[C@@H](O[C@H]1[C@H](O)[C@H]2O)O[C@@H]9CO)O[C@@H]8CO)O[C@@H]7CO)O[C@@H]6CO)O[C@@H]5CO)O[C@@H]4CO)O[C@@H]3CO` [γ-CD, Gamma-cyclodextrin], for which, in data set [7], the “effect on formulation stability” value was “positive effect on stability” and the “effect of varying the amount on stability” value is “no significant effects”.
